Laboratory results reported in ChEMBL document CHEMBL3817755, “Design, synthesis and biological evaluation of indazolepyrimidine based derivatives as anticancer agents with anti-angiogenic and antiproliferative activities” (Medchemcomm, 2016).

Columns and labels:
NCI-H322M = test: Growth inhibition of human NCI-H322M cells at 10 uM after 48 hrs by SRB assay; format: functional; details: read-out: GI
[1] = Growth inhibition of human IGROV1 cells at 10 uM after 48 hrs by SRB assay; format: functional; details: IGROV-1, 48 h, read-out: GI
[2] = Growth inhibition of human LOXIMVI cells at 10 uM after 48 hrs by SRB assay; format: functional; details: LOX IMVI, read-out: GI
SK-MEL-2 = test: Growth inhibition of human SK-MEL-2 cells at 10 uM after 48 hrs by SRB assay; format: functional; details: SK-MEL-2, 48 h, read-out: GI
A498 [3] = test: Growth inhibition of human A498 cells at 10 uM after 48 hrs by SRB assay; format: functional; details: A498, 48 h, read-out: GI
[4] = Growth inhibition of human UACC257 cells at 10 uM after 48 hrs by SRB assay; format: functional; details: UACC-257, 48 h, read-out: GI
[5] = Growth inhibition of human SNB19 cells at 10 uM after 48 hrs by SRB assay; format: functional; details: SNB-19, 48 h, read-out: GI
ACHN = test: Growth inhibition of human ACHN cells at 10 uM after 48 hrs by SRB assay; format: functional; details: read-out: GI
[6] = Growth inhibition of human HL-60(TB) cells at 10 uM after 48 hrs by SRB assay; format: functional; details: HL-60, 48 h, read-out: GI
SR = test: Growth inhibition of human SR cells at 10 uM after 48 hrs by SRB assay; format: functional; details: read-out: GI
NCI-H460 = test: Growth inhibition of human NCI-H460 cells at 10 uM after 48 hrs by SRB assay; format: functional; details: NCI-H460, 48 h, read-out: GI
[7] = Growth inhibition of human SW620 cells at 10 uM after 48 hrs by SRB assay; format: functional; details: SW-620, 48 h, read-out: GI
[8] = Growth inhibition of human SF539 cells at 10 uM after 48 hrs by SRB assay; format: functional; details: SF-539, 48 h, read-out: GI
[9] = Growth inhibition of human Hs 578T cells at 10 uM after 48 hrs by SRB assay; format: functional; details: read-out: GI
[10] = Growth inhibition of human Caki1 cells at 10 uM after 48 hrs by SRB assay; format: functional; details: CAKI-1, 48 h, read-out: GI
SK-MEL-5 [11] = test: Growth inhibition of human SK-MEL-5 cells at 10 uM after 48 hrs by SRB assay; format: functional; details: SK-MEL-5, 48 h, read-out: GI
[12] = Growth inhibition of human DU145 cells at 10 uM after 48 hrs by SRB assay; format: functional; details: DU-145, 48 h, read-out: GI
[13] = Growth inhibition of human NCI-ADR-RES cells at 10 uM after 48 hrs by SRB assay; format: functional; details: read-out: GI
[14] = Growth inhibition of human DU145 cells after 48 hrs by SRB assay; format: functional; details: DU-145, 48 h
NCI-H23 = test: Growth inhibition of human NCI-H23 cells after 48 hrs by SRB assay; format: functional; details: NCI-H23, 48 h
[15] = Growth inhibition of human SF268 cells after 48 hrs by SRB assay; format: functional; details: SF-268, 48 h
[16] = Growth inhibition of human OVCAR3 cells after 48 hrs by SRB assay; format: functional; details: OVCAR-3, 48 h
SK-MEL-5 [17] = test: Growth inhibition of human SK-MEL-5 cells after 48 hrs by SRB assay; format: functional; details: SK-MEL-5, 48 h
[18] = molecular target: Vascular endothelial growth factor receptor 2 (Homo sapiens, UniProt P35968); test: Inhibition of VEGFR-2 (unknown origin) after 40 mins by Kinase-GloPlus luminescence assay
[19] = Growth inhibition of human SF295 cells after 48 hrs by SRB assay; format: functional; details: SF-295, 48 h
[20] = Growth inhibition of human OVCAR8 cells after 48 hrs by SRB assay; format: functional; details: OVCAR-8, 48 h
A498 [21] = test: Growth inhibition of human A498 cells after 48 hrs by SRB assay; format: functional; details: A498, 48 h
[22] = Growth inhibition of human HL-60(TB) cells after 48 hrs by SRB assay; format: functional; details: HL-60, 48 h
[23] = molecular target: Hepatocyte growth factor receptor (Homo sapiens) (UniProt P08581); test: Inhibition of c-Met (unknown origin) at 10 uM
CCRF-CEM = test: Growth inhibition of human CCRF-CEM cells after 48 hrs by SRB assay; format: functional
[24] = Growth inhibition of human HCT15 cells after 48 hrs by SRB assay; format: functional; details: HCT-15, 48 h
NCI-H226 = test: Growth inhibition of human NCI-H226 cells after 48 hrs by SRB assay; format: functional; details: NCI-H226, 48 h
[25] = Growth inhibition of human HCT116 cells after 48 hrs by SRB assay; format: functional; details: HCT-116, 48 h
[26] = Growth inhibition of human COLO205 cells after 48 hrs by SRB assay; format: functional; details: COLO 205, 48 h
NCI-H522 = test: Growth inhibition of human NCI-H522 cells after 48 hrs by SRB assay; format: functional; details: NCI-H522, 48 h
KM12 = test: Growth inhibition of human KM12 cells after 48 hrs by SRB assay; format: functional; details: KM12, 48 h
MDA-MB-468 = test: Growth inhibition of human MDA-MB-468 cells after 48 hrs by SRB assay; format: functional; details: MDA-MB-468, 48 h
MDA-MB-435 = test: Growth inhibition of human MDA-MB-435 cells after 48 hrs by SRB assay; format: functional; details: MDA-MB-435, 48 h
[27] = read-out: LC50 (the source's name)

Chain of Vascular endothelial growth factor receptor 2 (P35968 whole entry): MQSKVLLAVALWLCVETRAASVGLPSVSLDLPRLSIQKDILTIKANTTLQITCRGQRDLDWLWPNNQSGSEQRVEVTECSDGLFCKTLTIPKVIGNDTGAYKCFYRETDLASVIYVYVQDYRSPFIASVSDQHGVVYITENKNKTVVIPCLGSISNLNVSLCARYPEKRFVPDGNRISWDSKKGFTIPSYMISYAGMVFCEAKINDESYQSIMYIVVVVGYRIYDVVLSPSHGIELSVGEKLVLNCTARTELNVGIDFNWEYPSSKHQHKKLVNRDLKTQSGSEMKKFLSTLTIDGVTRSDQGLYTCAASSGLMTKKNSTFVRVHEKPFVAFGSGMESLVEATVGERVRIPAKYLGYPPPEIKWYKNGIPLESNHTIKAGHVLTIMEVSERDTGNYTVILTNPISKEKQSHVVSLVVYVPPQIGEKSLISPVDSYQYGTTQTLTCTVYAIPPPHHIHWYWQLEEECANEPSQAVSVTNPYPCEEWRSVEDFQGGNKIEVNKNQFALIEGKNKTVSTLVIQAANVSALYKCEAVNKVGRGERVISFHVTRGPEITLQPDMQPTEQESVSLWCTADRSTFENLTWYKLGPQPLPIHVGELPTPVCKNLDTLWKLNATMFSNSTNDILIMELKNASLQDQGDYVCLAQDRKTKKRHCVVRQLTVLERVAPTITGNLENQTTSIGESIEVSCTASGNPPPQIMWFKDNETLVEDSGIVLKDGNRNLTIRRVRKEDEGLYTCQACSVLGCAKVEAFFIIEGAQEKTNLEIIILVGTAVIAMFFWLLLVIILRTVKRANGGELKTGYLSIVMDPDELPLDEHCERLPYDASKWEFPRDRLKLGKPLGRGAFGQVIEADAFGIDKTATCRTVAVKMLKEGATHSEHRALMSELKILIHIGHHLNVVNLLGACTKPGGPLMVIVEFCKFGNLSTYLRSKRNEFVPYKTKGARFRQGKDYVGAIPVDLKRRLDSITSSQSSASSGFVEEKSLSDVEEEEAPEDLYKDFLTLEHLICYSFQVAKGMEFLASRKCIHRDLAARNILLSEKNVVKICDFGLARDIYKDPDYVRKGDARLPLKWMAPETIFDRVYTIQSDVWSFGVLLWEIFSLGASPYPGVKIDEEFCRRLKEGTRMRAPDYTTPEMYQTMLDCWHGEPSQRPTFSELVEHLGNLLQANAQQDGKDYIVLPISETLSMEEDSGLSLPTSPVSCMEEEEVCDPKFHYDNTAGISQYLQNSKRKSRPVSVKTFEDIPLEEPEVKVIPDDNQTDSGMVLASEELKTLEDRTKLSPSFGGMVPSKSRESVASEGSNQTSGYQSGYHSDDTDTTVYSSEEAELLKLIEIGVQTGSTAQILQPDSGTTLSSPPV
Chain of Hepatocyte growth factor receptor (Homo sapiens) (P08581 whole entry): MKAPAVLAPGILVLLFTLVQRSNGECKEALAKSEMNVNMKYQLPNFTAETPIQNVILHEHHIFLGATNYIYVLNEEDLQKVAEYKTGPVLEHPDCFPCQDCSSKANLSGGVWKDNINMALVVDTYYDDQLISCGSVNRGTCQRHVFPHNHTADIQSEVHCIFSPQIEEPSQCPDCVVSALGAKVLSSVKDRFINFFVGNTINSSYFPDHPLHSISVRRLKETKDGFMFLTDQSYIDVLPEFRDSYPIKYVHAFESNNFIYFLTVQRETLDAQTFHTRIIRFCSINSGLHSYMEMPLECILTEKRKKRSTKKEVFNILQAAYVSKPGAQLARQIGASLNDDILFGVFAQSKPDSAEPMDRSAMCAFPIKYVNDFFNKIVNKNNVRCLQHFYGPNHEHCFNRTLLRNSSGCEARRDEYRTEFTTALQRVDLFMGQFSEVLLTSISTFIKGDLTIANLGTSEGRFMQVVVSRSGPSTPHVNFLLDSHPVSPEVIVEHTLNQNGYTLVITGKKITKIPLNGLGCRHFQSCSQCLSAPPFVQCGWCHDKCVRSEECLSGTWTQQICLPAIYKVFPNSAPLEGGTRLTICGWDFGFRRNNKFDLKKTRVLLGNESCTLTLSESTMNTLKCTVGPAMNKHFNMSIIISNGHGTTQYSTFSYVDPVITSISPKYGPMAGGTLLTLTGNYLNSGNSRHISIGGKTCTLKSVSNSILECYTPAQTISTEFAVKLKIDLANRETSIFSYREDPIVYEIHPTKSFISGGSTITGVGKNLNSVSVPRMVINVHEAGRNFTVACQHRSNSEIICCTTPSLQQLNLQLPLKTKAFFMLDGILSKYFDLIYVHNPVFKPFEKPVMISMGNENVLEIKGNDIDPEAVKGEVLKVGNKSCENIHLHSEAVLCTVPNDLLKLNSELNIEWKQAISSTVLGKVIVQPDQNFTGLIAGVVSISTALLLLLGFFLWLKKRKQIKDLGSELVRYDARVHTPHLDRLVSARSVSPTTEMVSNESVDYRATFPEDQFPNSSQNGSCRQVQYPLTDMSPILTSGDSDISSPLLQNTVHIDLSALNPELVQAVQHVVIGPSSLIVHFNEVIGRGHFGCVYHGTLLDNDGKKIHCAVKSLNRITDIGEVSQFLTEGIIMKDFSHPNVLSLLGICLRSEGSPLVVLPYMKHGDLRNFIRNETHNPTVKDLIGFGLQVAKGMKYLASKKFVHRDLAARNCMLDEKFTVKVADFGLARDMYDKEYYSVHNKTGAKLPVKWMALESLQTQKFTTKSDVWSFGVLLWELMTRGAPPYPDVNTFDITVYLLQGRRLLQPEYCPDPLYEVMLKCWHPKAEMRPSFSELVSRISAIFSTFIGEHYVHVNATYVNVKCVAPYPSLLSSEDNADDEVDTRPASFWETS

## Fc1ccc(Nc2nccc(Nc3ccc4[nH]ncc4c3)n2)cc1
NCI-H322M
  inhibition of growth at 10 µM: 27%
[1]
  inhibition of growth at 10 µM: 44%
[2]
  inhibition of growth at 10 µM: 32%
SK-MEL-2
  inhibition of growth at 10 µM: 24%
A498 [3]
  inhibition of growth at 10 µM: 51%
[4]
  inhibition of growth at 10 µM: 26%
[5]
  inhibition of growth at 10 µM: 12%
ACHN
  inhibition of growth at 10 µM: 47%
[6]
  inhibition of growth at 10 µM: 31%
SR
  inhibition of growth at 10 µM: 62%
NCI-H460
  inhibition of growth at 10 µM: 40%
[7]
  inhibition of growth at 10 µM: 31%
[8]
  inhibition of growth at 10 µM: 22%
[9]
  inhibition of growth at 10 µM: 35%
[10]
  inhibition of growth at 10 µM: 51%
SK-MEL-5 [11]
  inhibition of growth at 10 µM: 66%
[12]
  inhibition of growth at 10 µM: 34%
[13]
  inhibition of growth at 10 µM: 32%

## COc1cccc(Nc2nccc(Nc3ccc4[nH]ncc4c3)n2)c1
[14]
  GI50: 1.3 µM
  LC50: 6.24 µM
  TGI: 2.85 µM
NCI-H23
  GI50: 1.69 µM
  TGI: 3.83 µM
NCI-H23; [27]
  CC50: 8.7 µM
[15]
  GI50: 1.86 µM
  TGI: 5.89 µM
[15]; [27]
  CC50: 22.5 µM
NCI-H322M
  inhibition of growth at 10 µM: 93%
[1]
  inhibition of growth at 10 µM: 124%
[2]
  inhibition of growth at 10 µM: 167%
SK-MEL-2
  inhibition of growth at 10 µM: 137%
A498 [3]
  inhibition of growth at 10 µM: 87%
[4]
  inhibition of growth at 10 µM: 89%
[5]
  inhibition of growth at 10 µM: 76%
[16]
  GI50: 1.58 µM
  TGI: 4.07 µM
[16]; [27]
  CC50: 11.1 µM
ACHN
  inhibition of growth at 10 µM: 103%
SK-MEL-5 [17]
  GI50: 1.22 µM
  TGI: 2.47 µM
SK-MEL-5 [17]; [27]
  CC50: 5.01 µM
[18]
  IC50: 0.081 µM
[19]
  GI50: 1.66 µM
  LC50 (concentration killing 50% of cells): 6.04 µM
  TGI: 3.17 µM
[20]
  GI50: 1.67 µM
  TGI: 4.39 µM
[20]; [27]
  CC50: 13.4 µM
A498 [21]
  GI50: 1.65 µM
  TGI: 5.3 µM
A498 [21]; [27]
  CC50: 30.5 µM
[6]
  inhibition of growth at 10 µM: 162%
[22]
  GI50: 1.53 µM
  LC50: 8.29 µM
  TGI: 3.56 µM
SR
  inhibition of growth at 10 µM: 111%
NCI-H460
  inhibition of growth at 10 µM: 168%
[23]
  inhibition: 54%
CCRF-CEM
  GI50: 0.9 µM
  LC50 (concentration for 50% net cell kill): 21.7 µM
  TGI: 4.56 µM
[7]
  inhibition of growth at 10 µM: 169%
[24]
  GI50: 1.21 µM
  LC50: 7.01 µM
  TGI: 2.91 µM
NCI-H226
  GI50: 1.82 µM
  TGI: 4.46 µM
NCI-H226; [27]
  CC50: 14.8 µM
[8]
  inhibition of growth at 10 µM: 86%
[25]
  GI50: 1.59 µM
  TGI: 3.23 µM
[25]; [27]
  CC50: 6.54 µM
[9]
  inhibition of growth at 10 µM: 76%
[10]
  inhibition of growth at 10 µM: 131%
[26]
  GI50: 1.57 µM
  LC50: 6.76 µM
  TGI: 3.26 µM
SK-MEL-5 [11]
  inhibition of growth at 10 µM: 184%
NCI-H522
  GI50: 1.48 µM
  LC50: 5.54 µM
  TGI: 2.86 µM
KM12
  GI50: 1.64 µM
  TGI: 4.81 µM
KM12; [27]
  CC50: 17.4 µM
MDA-MB-468
  GI50: 1.25 µM
  TGI: 2.77 µM
MDA-MB-468; [27]
  CC50: 6.13 µM
[12]
  inhibition of growth at 10 µM: 159%
[13]
  inhibition of growth at 10 µM: 111%
MDA-MB-435
  GI50: 1.49 µM
  LC50: 6.78 µM
  TGI: 3.18 µM
